Target: T1, Cytochrome P450 1A2 (Homo sapiens, UniProt P05177)
T1 sequence (P05177 whole entry): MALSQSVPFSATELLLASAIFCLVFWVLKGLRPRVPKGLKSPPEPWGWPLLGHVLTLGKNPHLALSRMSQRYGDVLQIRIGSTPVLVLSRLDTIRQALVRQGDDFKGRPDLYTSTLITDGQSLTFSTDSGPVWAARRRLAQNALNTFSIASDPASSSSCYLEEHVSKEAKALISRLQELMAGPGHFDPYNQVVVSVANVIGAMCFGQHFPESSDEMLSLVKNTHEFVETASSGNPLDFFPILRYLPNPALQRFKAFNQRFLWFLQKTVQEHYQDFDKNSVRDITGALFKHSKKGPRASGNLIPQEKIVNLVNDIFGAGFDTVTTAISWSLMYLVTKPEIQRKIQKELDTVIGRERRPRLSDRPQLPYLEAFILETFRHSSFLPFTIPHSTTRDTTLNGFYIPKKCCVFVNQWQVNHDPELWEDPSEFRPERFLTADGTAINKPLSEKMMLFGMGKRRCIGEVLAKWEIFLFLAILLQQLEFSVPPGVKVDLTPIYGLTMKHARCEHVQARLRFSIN
Experiment: Inhibition of CYP Enzyme Activity In Vitro
Protocol: The ability of the tested compounds to inhibit a panel of CYP enzymes in vitro was assessed using a series of human liver microsome assays. Half-maximal inhibitory concentration (IC50) was calculated for compounds demonstrating mean inhibition greater than 50% compared to a reference inhibitor.

Structure (SMILES): COc1c2ccoc2cc2oc(C)cc(=O)c12 [US11396516, Example visnagin]
- IC50: 0.24 µM

— BindingDB's records for patent US11396516 (The General Hospital Corporation, 2022)
